Values of other authors in patent US20060100182A1, “Pharmaceutical compositions for the treatment of urinary incontinence” (priority 2002, published 2006).
Counter-ions that a name gives are not always drawn.

- systemic bioavailability (oral route, hepatic first-pass effect): ~6%
- maximum plasmatic levels (oral route, recommended doses, 5 mg tablets): 8 to 18 ng/mL
- elimination half-life (statutory information DITROPAN, Vidal 2001): 2 h
Structure (SMILES): CCN(CC)CC#CCOC(=O)C(O)(c1ccccc1)C1CCCCC1 (stereo not drawn) [oxybutynin, 4-(diethylamino)-2-butynyl acetate ∝-cyclohexyl ∝-hydroxyphenyl hydrochloride]
